Reference: patent publication US20230348376A1 (TEIJIN PHARMA LIMITED, priority 2020, published 2023)
Read-outs that look alike come from different tables or passages of the source.

How the values were obtained:
[1] = Evaluation of brain penetration in mice (blood and brain concentration at brain Cmax); assay type: in vivo, mouse; settings: 1 mg/kg single oral dose, C57BL/6J mice; for Concentration in blood (mean ± SD) at brain Cmax / Concentration in brain (mean ± SD) at brain Cmax: n=3; for Kp: male, C57BL/6J, mouse, brain/plasma, po, 1 mg/kg, read-out: Concentration in brain/in blood ratio at brain Cmax
Procedure: The administration solution was administered orally to C57BL/6J mice (8 weeks old, male, n=3) at a single dose (1 mg/kg). Mice were euthanized at 6 points of 0.25, 0.5, 1, 2, 4, and 8 hours after administration, and plasma and brain sampling were performed. After preparing a homogenate from the collected brain using Tissue Lyser II (QIAGEN #85300), acetonitrile was added to the homogenate and the homogenate was centrifuged (12000 rpm, 5 minutes) to extract the administered test compound contained in the brain. Similarly, the plasma was subjected to addition of acetonitrile and centrifugal separation to extract the administered test compound contained in the plasma. Each extracted sample was subjected to measurement of the concentration of administered test compound using LC/MS/MS (SHIMADZU UFLC/MS/MS (8050)).
Test 2 [0.2 mg/kg Administration Study] […] The administration solution was administered orally to C57BL/6J mice (8 weeks old, male, n=3) at a single dose (0.2 mg/kg). Mice were euthanized at 6 points of 0.25, 0.5, 1, 2, 4, and 8 hours after administration, and plasma and brain sampling were performed. After preparing a homogenate from the collected brain using Tissue Lyser II (QIAGEN #85300), acetonitrile was added to the homogenate and the homogenate was centrifuged (12000 rpm, 5 minutes) to extract the administered compound contained in the brain. Similarly, the plasma was subjected to addition of acetonitrile and centrifugal separation to extract the administered test compound contained in the plasma. Each extracted sample was subjected to measurement of the concentration of administered test compound using LC/MS/MS (SHIMADZU UFLC/MS/MS (8050)).

[2] = molecular target: T1, human VDR (Homo sapiens, UniProt P11473); test: Evaluation of VDR transcription activity in human osteoblasts (HOS cells), luciferase reporter; settings: HOS cells transfected with human VDR, human RXRα and DR3 luciferase reporter, 21 hours
T1 sequence (P11473 1-427): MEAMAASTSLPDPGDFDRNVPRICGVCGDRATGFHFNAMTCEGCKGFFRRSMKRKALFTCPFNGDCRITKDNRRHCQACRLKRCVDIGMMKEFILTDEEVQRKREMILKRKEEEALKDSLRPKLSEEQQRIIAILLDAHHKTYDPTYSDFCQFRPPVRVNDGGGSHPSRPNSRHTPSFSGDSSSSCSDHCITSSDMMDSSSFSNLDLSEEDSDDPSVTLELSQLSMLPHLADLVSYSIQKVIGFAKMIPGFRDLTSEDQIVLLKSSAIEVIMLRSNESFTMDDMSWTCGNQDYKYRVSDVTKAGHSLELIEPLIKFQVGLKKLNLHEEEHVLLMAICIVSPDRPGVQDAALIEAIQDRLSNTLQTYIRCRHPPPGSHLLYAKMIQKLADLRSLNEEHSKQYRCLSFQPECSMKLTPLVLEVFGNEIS
T1 sequence (P19793 1-462 partner): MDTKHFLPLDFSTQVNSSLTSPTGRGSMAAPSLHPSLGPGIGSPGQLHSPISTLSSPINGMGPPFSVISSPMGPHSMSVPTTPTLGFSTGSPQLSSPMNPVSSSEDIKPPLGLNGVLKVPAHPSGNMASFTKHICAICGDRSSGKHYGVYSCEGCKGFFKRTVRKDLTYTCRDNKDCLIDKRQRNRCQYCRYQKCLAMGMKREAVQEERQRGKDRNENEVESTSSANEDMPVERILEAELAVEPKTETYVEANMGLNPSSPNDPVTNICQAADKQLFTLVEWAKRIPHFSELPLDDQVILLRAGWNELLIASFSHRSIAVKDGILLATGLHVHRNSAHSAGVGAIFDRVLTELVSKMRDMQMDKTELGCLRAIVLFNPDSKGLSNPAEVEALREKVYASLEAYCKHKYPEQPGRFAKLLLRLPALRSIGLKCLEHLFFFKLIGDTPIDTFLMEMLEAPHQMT

[3] = test system: rat oligodendrocyte progenitor cells; test: Promotive activity of rat oligodendrocyte progenitor cell differentiation-2 (immunostaining of MBP); assay type: cell-based; settings: vitamin D derivative 2 μM, T3 30 nM, 4 days
Procedure: The promotive activity of oligodendrocyte progenitor cell (OPC) differentiation of the vitamin D derivatives was evaluated by immunostaining of MBP.
Subsequently, oligodendrocyte progenitor cell separation medium was added to the flask, and the mixture was similarly shaken for about 22 hours (37° C., 200 rpm), and the supernatant was collected to prepare oligodendrocyte progenitor cells.

[4] = Activity (EC50, VDR transcription activity)

Row | SMILES | Concentration in blood (mean ± SD) at brain Cmax [1] | Concentration in brain (mean ± SD) at brain Cmax [1] | Kp [1] | EC50 [2, 4] | other results
1 | C[C@H](CN1CCC(O)(C(F)(F)F)C1)[C@H]1CC[C@H]2/C(=C/C=C3C[C@@H](O)C[C@H](O)C3)CCC[C@]12C (single isomer, unassigned) [Compound B045a] | 530 ± 97 nM | 185 ± 116 pmol/g | 0.35 | < 1 nM | 
2 | C[C@H](CN1CCC(O)(C(F)(F)F)C1)[C@H]1CC[C@H]2/C(=C/C=C3C[C@@H](O)C[C@H](O)C3)CCC[C@]12C (single isomer, unassigned) [Compound B045b] | 444 ± 113 nM | 109 ± 22 pmol/g |  |  | Concentration in brain/in blood ratio at brain Cmax [1]: 0.25; EC50 ([2]; read-out: Activity (EC50, VDR transcription activity)): < 1 nM
3 | C=C1/C(=C\C=C2/CCC[C@]3(C)[C@@H]([C@@H](C)CN4CC[C@H](F)C4)CC[C@@H]23)C[C@@H](O)C[C@@H]1O [Compound B018, (1R,3S,Z)-5-(2-((1R,3aS,7aR,E)-1-((R)-1-((S)-3-fluoropyrrolidin-1-yl)propan-2-yl)-7a-methyloctahydro-4H-inden-4-ylidene)ethylidene)-4-methylenecyclohexane-1,3-diol] | 841 ± 197 nM | 533 ± 197 pmol/g | 0.63 | 10 to 100 nM | 
4 | C[C@H](CN1CCC(O)(C(F)(F)F)CC1)[C@H]1CC[C@H]2/C(=C/C=C3C[C@@H](O)C[C@H](O)C3)CCC[C@]12C [Compound C002, (1R,3R)-5-(2-((1R,3aS,7aR,E)-1-((S)-1-(4-hydroxy-4-(trifluoromethyl)piperidin-1-yl)propan-2-yl)-7a-methyloctahydro-4H-inden-4-ylidene)ethylidene)cyclohexane-1,3-diol] | 402 ± 38 nM | 156 ± 14 pmol/g | 0.39 | 10 to 100 nM | 
5 | C=C1/C(=C\C=C2/CCC[C@]3(C)[C@@H]([C@@H](C)CN4CCC(O)(C(F)(F)F)CC4)CC[C@@H]23)C[C@@H](O)[C@H](C)[C@@H]1O [Compound C006] | 510 ± 55 nM | 239 ± 23 pmol/g | 0.47 | < 1 nM | 
6 | C=C1[C@H](O)CC(=C/C=C2\CCC[C@]3(C)[C@@H]([C@@H](C)CN4CCC(C(F)F)CC4)CC[C@@H]23)C[C@H]1O [Compound C019] | 335 ± 85 nM | 614 ± 153 pmol/g | 1.83 | 1 to 10 nM | 
7 | C[C@H](CN1CCC[C@](C)(O)C1)[C@H]1CC[C@H]2/C(=C/C=C3C[C@@H](O)C[C@H](O)C3)CCC[C@]12C [Compound C039, (1R,3R)-5-(2-((1R,3aS,7aR,E)-1-((S)-1-((S)-3-hydroxy-3-methylpiperidin-1-yl)propan-2-yl)-7a-methyloctahydro-4H-inden-4-ylidene)ethylidene)cyclohexane-1,3-diol] | 132 ± 15 nM | 101 ± 8 pmol/g | 0.77 | 1 to 10 nM | 
8 | C=C1[C@H](O)CC(=C/C=C2\CCC[C@]3(C)[C@@H]([C@H](C)CN4CCC(CC(F)F)CC4)CC[C@@H]23)C[C@H]1O [Compound C059, (1R,3R)-5-(2-((1R,3aS,7aR,E)-1-((S)-1-(4-(2,2-difluoroethyl)piperidin-1-yl)propan-2-yl)-7a-methyloctahydro-4H-inden-4-ylidene)ethylidene)-2-methylenecyclohexane-1,3-diol] | 167 ± 29 nM | 241 ± 21 pmol/g | 1.44 | 10 to 100 nM | 
9 | C=C1/C(=C\C=C2/CCC[C@]3(C)[C@@H]([C@H](C)CN4CCCC[C@@H]4C)CC[C@@H]23)C[C@@H](O)C[C@@H]1O [Compound F001, (1R,3S,Z)-5-(2-((1R,3aS,7aR,E)-7a-methyl-1-((S)-1-((S)-2-methylpiperidin-1-yl)propan-2-yl)octahydro-4H-inden-4-ylidene)ethylidene)-4-methylenecyclohexane-1,3-diol] |  |  |  |  | Mean (number of MBP-positive cells/number of Hoechst33342-positive cells) ([3]; Test 7): 0.29
10 | C=C1/C(=C\C=C2/CCC[C@]3(C)[C@@H]([C@H](C)CN4CCCC[C@H]4C)CC[C@@H]23)C[C@@H](O)C[C@@H]1O [Compound F002, (1R,3S,Z)-5-(2-((1R,3aS,7aR,E)-7a-methyl-1-((S)-1-((R)-2-methylpiperidin-1-yl)propan-2-yl)octahydro-4H-inden-4-ylidene)ethylidene)-4-methylenecyclohexane-1,3-diol] |  |  |  |  | Mean (number of MBP-positive cells/number of Hoechst33342-positive cells) ([3]; Test 7): 0.31
11 | C=C1/C(=C\C=C2/CCC[C@]3(C)[C@@H]([C@H](C)CN4CCCCC4(C)C)CC[C@@H]23)C[C@@H](O)C[C@@H]1O [Compound F003, (1R,3S,Z)-5-(2-((1R,3aS,7aR,E)-1-((S)-1-(2,2-dimethylpiperidin-1-yl)propan-2-yl)-7a-methyloctahydro-4H-inden-4-ylidene)ethylidene)-4-methylenecyclohexane-1,3-diol] |  |  |  |  | Mean (number of MBP-positive cells/number of Hoechst33342-positive cells) ([3]; Test 7): 0.32
12 | C=C1/C(=C\C=C2/CCC[C@]3(C)[C@@H]([C@H](C)CN4CCOC[C@@H]4C)CC[C@@H]23)C[C@@H](O)C[C@@H]1O [Compound F004, (1R,3S,Z)-5-(2-((1R,3aS,7aR,E)-7a-methyl-1-((S)-1-((S)-3-methylmorpholino)propan-2-yl)octahydro-4H-inden-4-ylidene)ethylidene)-4-methylenecyclohexane-1,3-diol] |  |  |  |  | Mean (number of MBP-positive cells/number of Hoechst33342-positive cells) ([3]; Test 3): 0.37
13 | C=C1/C(=C\C=C2/CCC[C@]3(C)[C@@H]([C@H](C)CN4CCOC[C@H]4C)CC[C@@H]23)C[C@@H](O)C[C@@H]1O [Compound F005, (1R,3S,Z)-5-(2-((1R,3aS,7aR,E)-7a-methyl-1-((S)-1-((R)-3-methylmorpholino)propan-2-yl)octahydro-4H-inden-4-ylidene)ethylidene)-4-methylenecyclohexane-1,3-diol] |  |  |  |  | Mean (number of MBP-positive cells/number of Hoechst33342-positive cells) ([3]; Test 3): 0.40
14 | C=C1/C(=C\C=C2/CCC[C@]3(C)[C@@H]([C@H](C)CN4CCOCC4(C)C)CC[C@@H]23)C[C@@H](O)C[C@@H]1O [Compound F006, (1R,3S,Z)-5-(2-((1R,3aS,7aR,E)-1-((S)-1-(3,3-dimethylmorpholino)propan-2-yl)-7a-methyloctahydro-4H-inden-4-ylidene)ethylidene)-4-methylenecyclohexane-1,3-diol] |  |  |  |  | Mean (number of MBP-positive cells/number of Hoechst33342-positive cells) ([3]; Test 4): 0.44
15 | C=C1/C(=C\C=C2/CCC[C@]3(C)[C@@H]([C@H](C)CN4CCOC[C@@H]4C4CC4)CC[C@@H]23)C[C@@H](O)C[C@@H]1O [Compound F008, (1R,3 S,Z)-5-(2-((1R,3aS,7aR,E)-1-((S)-1-((S)-3-cyclopropylmorpholino)propan-2-yl)-7a-methyloctahydro-4H-inden-4-ylidene)ethylidene)-4-methylenecyclohexane-1,3-diol] |  |  |  |  | Mean (number of MBP-positive cells/number of Hoechst33342-positive cells) ([3]; Test 5): 0.45
